Assays:
Assay type in all cases: cell-based
Jurkat T cells [1] = test: Radio frequency sensor device measurement of cellular energy metabolism in Jurkat T cell suspension (Example 1); settings: for radio frequency peak in magnitude at 64 MHz: final concentration 200 mg/dl in low D-glucose DMEM, about 8 h
Description: Jurkat T cells were obtained from American Type Culture Collection (ATCC) (#TIB-152) and maintained in high D-Glucose Dulbecco's Modified Eagle Medium (DMEM) (THERMO FISHER SCIENTIFIC INC., #10565042, 17.5 mM/315 mg/dl D-glucose) supplemented with 10% fetal bovine serum (FBS, THERMO FISHER SCIENTIFIC INC., #16140071), penicillin/streptomycin (Pen/Strep), beta-Mercaptoethanol (b-ME) in a 37° C. humidified incubator, 5% CO2. At time point 0:00 (hr.: min.), Jurkat T cells (3×10^9) were suspended in three separate solutions of low D-glucose DMEM (THERMO FISHER SCIENTIFIC INC., #10565042, 5.5 mM (100 mg/dl D-glucose) supplemented with fetal bovine serum (10% v/v, THERMO FISHER SCIENTIFIC INC. #16140071), penicillin/streptomycin (Pen/Strep), beta-mercaptoethanol (20 ml of media, 5×10^7 cells per mL each) in tissue culture dishes (10 cm). The cell suspension was placed in an incubator at 37° C. at maximum humidity, carbon dioxide concentration of 5%. Cells were mixed continuously on an orbital shaker (60 rpm). Following 60 minutes of incubation for equilibration, a sensor device of this disclosure was placed in each solution. To the resulting solutions were added 200 μl of media containing 100× D-glucose (e.g., to a final concentration of 200 mg/dl), control media (identical media, but containing low D-glucose (5.5 mM, 100 mg/dl)), and media containing 100× 2-deoxy-D-glucose (identical media, but replacing D-glucose with 2-deoxy-D-glucose at a final concentration of e.g., 200 mg/dl). The radio frequency was detected at 64MHz with the sensor device over the course of approximately 8 h.

Jurkat T cells [2] = test: Radio frequency monitoring device measurement at 64 MHz in Jurkat T cell suspensions (Example 5); settings: for net change in radio frequency magnitude (plain medium subtracted as background): 64 MHz
Description: The degree of cellular energy metabolism was monitored by radio frequency in Jurkat T cell suspensions to compare to direct intracellular ATP measurement of Example 4. Jurkat T cell suspensions were maintained as in Example 4. A radio frequency monitoring device was placed in the cell culture and monitored at 64 MHz frequency as a function of time. Cells were stimulated by addition of (a) D-glucose (180 mg/dl final concentration in DMEM), (b) 2-deoxy-D-glucose (2DG, 180 mg/dl final concentration in DMEM), (c) D-glucose (180 mg/dl final concentration) and BAY-876 (a glucose transporter 1 inhibitor, 5 μM final concentration), and (d) DMEM with low D-glucose (5.5 mM, 100 mg/dl, ‘plain medium’). All stimulations were conducted with the same volume of liquid.

Jurkat T cells [3] = test: Luciferase-based assay of intracellular ATP concentration (CELLTITER-GLO 2.0); settings: D-glucose 15.5 mM (280 mg/dl final) versus low D-glucose 5.5 mM
Description: Intracellular ATP concentrations were assessed using a luciferase-based assay to determine the rate of ATP production following addition of glucose. Jurkat T cells (1×10^7 cells per well in low D-glucose DMEM (100 μl, 5.5 mM, 100 mg/dl D-glucose)) were aliquoted into flat-bottom 96-well plates. Cells were stimulated with DMEM either containing D-glucose (15.5 mM, 280 mg/dl final solution) or low D-glucose (5.5 mM, 100 mg/dl), an effective difference of 10 mM (180 mg/dl) glucose, at time point 0 min. Cells were quantitatively removed from the incubation plate. An aliquot of cell suspension (50 μl) was transferred onto frozen CELLTITER-GLO® 2.0 (PROMEGA CO.) assay reagent on dry ice. The resulting mixture was thawed, and the ATP concentration measured via light emission in a 96-well plate-compatible luminometer. The resulting curve of luciferase activity in relative luminescence units (RLUs) over time (min. following stimulation) is shown in FIG. 7. […] Glucose transport is rapid as indicated by the rapid increase of ATP concentration following addition of D-glucose.

[4] = 180 mg/dl final concentration in DMEM

SMILES | radio frequency peak in magnitude at 64 MHz (Jurkat T cells [1]) | magnitude at 64 MHz over time (curve shape) (Jurkat T cells [2]; [4]) | net change in radio frequency magnitude (plain medium subtracted as background) (Jurkat T cells [2]; [4]) | time of apex of radio frequency peak (Jurkat T cells [1]; D-glucose 200 mg/dl final) | difference in luminescence (net ATP concentration) over time (Jurkat T cells [3]) | magnitude at 64 MHz over time (curve shape) (Jurkat T cells [2]; BAY-876 5 μM final with D-glucose 180 mg/dl final)
O=CC[C@@H](O)[C@H](O)[C@H](O)CO [2-deoxy-D-glucose] | no detectable peak | an initial peak, similar to D-glucose, the magnitude at 64 MHz quickly adopts a similar linear decline | only an initial net increase |  |  | 
O=C[C@H](O)[C@@H](O)[C@H](O)[C@H](O)CO [D-glucose] | a broad peak was observed | both a peak shortly after addition of stimulus, and a more gradual decline | an initial net increase in magnitude followed by a slow net decrease | approximately 4 h | an increase in net ATP concentration followed by a slower decrease in net ATP concentration | 
Cc1c(NC(=O)c2cc(C(N)=O)nc3cc(F)ccc23)c(C(F)(F)F)nn1Cc1ccc(C#N)cc1 [BAY-876] |  |  |  |  |  | a smooth decline becoming linear over time

Source: US20260000351A1, “NON-INVASIVE METHODS OF MEASURING THE DEGREE OF CELLULAR ENERGY METABOLISM” (AMAZON TECHNOLOGIES, INC., priority 2023, published 2026)
